Results as given in ChEMBL document CHEMBL1127649, “Protein kinase C. Modeling of the binding site and prediction of binding constants” (J Med Chem, 1994).

Biological target: Protein kinase C alpha type (Homo sapiens, UniProt P17252)
Test: Binding affinity (Ki) towards Protein kinase C

Structure (SMILES)	Ki [µM]
CO[C@@H](CC[C@H](C)[C@H]1O[C@@]23CC(OC(=O)C[C@H]([C@@H](C)O)OC(=O)C[C@](O)(O2)[C@H](C)CC3(C)C)[C@@H]1C)c1cccc(O)c1	0.02
CC(=O)O[C@@H]1CC(=O)O[C@H]1CO	> 1700
CCCCCCCCCCCCCCCCCCC(=O)O[C@@H]1CC(=O)O[C@H]1CO	8.7
CCCCCCCCCCCCC1C(=O)O[C@@H](CO)[C@@]12CCC(=O)O2 (stereo partly specified)	75.3
CCCCCCCCCCCCCC(=O)O[C@H]1CC(=O)O[C@@H]1CO	5.3
CCCCCCCCCCC[C@@H]1C(=O)O[C@H]2[C@@H]1C(=O)O[C@@H]2CO	27.8
CCCCCCCCCCCCCC(=O)C1CC(=O)O[C@H]1CO (stereo partly specified)	2.5
CCCCCCCCCCCCCC(=O)O[C@H]1CC(=O)O[C@H]1CO	31
CCCCCCCCCCCCCC(=O)O[C@@H]1CC(=O)O[C@@H]1CO	300

Continued, values first:

Ki [µM]	Structure (SMILES)
13.6	CCCCCCCCCCC/C=C1/C(=O)O[C@@H](CO)[C@@]12CCC(=O)O2
1.3	CCCCCCCCCCCCCC(=O)OC[C@H](CO)OC(C)=O
22	CCCCCCCCCCC[C@H]1C(=O)O[C@@]2(CO)COC(=O)[C@@H]12
7.7	CCCCCCCCCCC[C@@H]1C(=O)O[C@]2(CO)COC(=O)[C@H]12
4.1	CCCCCCCCCCC(=O)O[C@@H]1CC(=O)O[C@H]1CO
187	CCCCCCC(=O)O[C@@H]1CC(=O)O[C@H]1CO
7.6	CCCCCCCCCCCC[C@@H]1C(=O)O[C@]2(CO)CC(=O)O[C@H]12
